In paper PMC4039119 (Oncotarget, 2014):
Where two headings read alike, the source gives them in different places.

Legend:
ITGA6 in 4T-1 cells = experiment: Western blot of ITGA6 expression after TGFβ treatment; format: cell-based, murine
Procedure: (§1) Whole cell lysates were prepared using 4% (w/v) CHAPS buffer while tumor lysates were prepared by homogenizing the tumors in RIPA lysis buffer. Proteins from control and treated samples were subjected to SDS-PAGE and the segregated proteins were transferred to PVDF membrane. The membrane was developed as described by us previously. All antibodies used in the study were purchased from Cell signaling except HER2 (Abcam, Cambridge, MA), ITGB4 (Santacruz Biotechnology, Dallas, TX), TWIST (Santacruz Biotechnology, Dallas, TX), phospho Akt (S473) (Santacruz Biotechnology, Dallas, TX) and Caspase 3 (Santacruz Biotechnology, Dallas, TX).

[1] = tested on: ITGA6 in MDA-MB-231 cells; experiment: as above; format: cell-based, human
Procedure: as §1

[2] = tested on: normal human melanocyte epithelial (PIG1) cells; experiment: Sulforhodamine B cell survival assay in normal cells; format: cell-based; details: 50nM CuB for 72h
Procedure: The cells were fixed with ice cold 10% trichloroacetic acid, washed and stained with sulforhodamine B (SRB) dye and the optical density was measured in Tris base solution using plate reader, after washing the dye with 1% acetic acid solution as described by us previously. […]
vivo breast tumor growth suppression – Gupta et al
24, 48h and 72h. Cell survival was measured with sulforhodamine B assay to estimate the IC50 values. The ex periments were repeated at least three times with 4 replicates in each ex periment. B. Comparison of the cell survival of PIG1 and the breast cancer cell lines at 50nM […]
(1 picture or pasted object on this page, not shown here)

4T-1 orthotopic tumors = experiment: Orthotopic breast tumor therapy model; format: in vivo, female BALB/c mice; details: 1mg/kg i.p. every third day
Procedure: In another experiment, female BALB/c mice (4-6 weeks old) were obtained from Jackson Laboratories (Ban harbor, Maine, USA) and maintained under controlled humidity and temperature conditions. The use of BALB/c mice and their treatment was approved by the Institutional Animal Care and Use Committee (IACUC), Texas Tech University Health Sciences Center, and the experiments were conducted in strict compliance with the regulations. Exponentially growing 4T-1 cells were harvested, washed and re-suspended in PBS at a density of 1x10^6 cells per ml with 50% matrigel. A suspension of 0.1mL containing 0.1x10^6 cells was injected in the mammary fat pads of the recipient mice. Tumor volumes and animal weights were measured every alternate day as described by us previously. When the tumors reached a size of about 30-50 mm3, mice were randomly segregated into two groups with eight mice in each group. […] The control mice received vehicle alone. Mice were sacrificed on day 28 by CO2 overdose and death was confirmed by cervical dislocation in accordance with IACUC guidelines. The tumors were removed aseptically from each mouse, weighed and snap frozen in liquid-nitrogen for further analysis.

4T-1 cells = experiment: Annexin V-FITC apoptosis assay; format: cell-based, murine; details: 4T-1, 75nM CuB for 72h
Procedure: (§2) Apoptosis assay was performed using a kit (BD Biosciences, CA) according to manufacturer's instructions. Approximately, 0.1x10^6 cells were plated in 6-well plate and left overnight for attachment. […] A 5.0μl of Annexin V-FITC and 5μl of propidium iodide (BD Biosciences, San Jose, CA) were added to the 100μl of suspension and incubated for additional 20 min at room temperature in dark. Total sample volume was made up to 200μl with binding buffer. Samples were analyzed by flow cytometer after vortexing (Accuri C6, MI).

melanoma tumors = details: 1mg/kg intraperitoneal thrice a week, after 23 days; cited from earlier work
MCF-7 cells = experiment: Annexin V-FITC apoptosis assay; format: cell-based, human; details: MCF-7, 75nM CuB for 72h
Procedure: as §2

MDA-MB-231 cells = experiment: Annexin V-FITC apoptosis assay; format: cell-based, human; details: MDA-MB-231, 75nM CuB for 72h
Procedure: as §2

SKBR3 cells = experiment: Annexin V-FITC apoptosis assay; format: cell-based, human; details: SKBR3, 75nM CuB for 72h
Procedure: as §2

[3] = tested on: MDA-MB-231 orthotopic tumors; experiment: Orthotopic breast tumor therapy model; format: in vivo, female athymic nude mice; details: 2mg/kg oral gavage every day
Procedure: Female athymic nude mice (4-6 weeks old) were obtained from Jackson Laboratories (Ban harbor, Maine, USA) and maintained under specific pathogen-free conditions. The use of athymic nude mice and their treatment was approved by the Institutional Animal Care and Use Committee (IACUC), Texas Tech University Health Sciences Center, and the experiments were conducted in strict compliance with the regulations. Mice were given antioxidant-free AIN-76A special diet (TestDiet, Richmond, IN) one week before starting the experiment. Exponentially growing MDA-MB-231 cells were harvested, washed and resuspended in PBS at a density of 50x10^6 cells per ml with 80% matrigel (BD Biosciences, San Jose, CA). A suspension of 0.1mL containing 5x10^6 cells was injected in the mammary fat pads of the recipient mice. Tumor volumes and animal weights were measured twice a week as described by us previously. When the tumors reached a size of about 50-80 mm^3, mice were randomly segregated into two groups with ten mice in each group. […] Mice were sacrificed on day 60 by CO2 overdose and death was confirmed by cervical dislocation in accordance with IACUC guidelines. The tumors were dissected out aseptically from each mouse, weighed and snap frozen in liquid-nitrogen for western blot analysis.

[4] = tested on: MDA-MB-231 orthotopic tumor; details: after 36 days, cited from earlier work
[5] = tested on: MDA-MB-231, SKBR3, MCF-7 and 4T-1 breast cancer cells; experiment: Sulforhodamine B cell survival assay, range over the breast cancer cell panel; format: cell-based
Procedure: The cells were fixed with ice cold 10% trichloroacetic acid, washed and stained with sulforhodamine B (SRB) dye and the optical density was measured in Tris base solution using plate reader, after washing the dye with 1% acetic acid solution as described by us previously.

[6] = tested on: non-small lung carcinoma tumor xenografts; details: 1mg/kg every alternate day for 5 weeks; cited from earlier work

## TGFβ
ITGA6 in 4T-1 cells
  increase of ITGA6 expression: about 1.5 fold
[1]
  increase of ITGA6 expression: about 1.5 fold

## Cucurbitacin B [CuB]
[2]
  growth inhibition of PIG1 cells: 20-30%
4T-1 orthotopic tumors; day 28
  tumor weight reduction: 27%
4T-1 orthotopic tumors; day 28, n=8
  tumor volume in treated group: 1446.7±142.6 mm^3
4T-1 cells
  apoptosis induced (cells): about 60%
Melanoma tumors
  suppression of tumor growth: about 50%
MCF-7 cells
  apoptosis induced (cells): about 60%
MDA-MB-231 cells
  apoptosis induced (cells): about 60%
SKBR3 cells
  apoptosis induced (cells): about 80%
[3]; day 60
  tumor volume reduction as compared to control: 55%
[3]; day 60, n=10
  tumor volume in treated group: 111.3±18.4 mm^3
[3]; tumors dissected at day 60
  tumor weight less than control: about 53%
[4]; 0.5 mg/kg i.p.
  tumor volume suppression: 42%
[4]; 1mg/kg i.p.
  tumor volume suppression: 55%
[5]; 50nM CuB for 72h
  growth inhibition of cancer cell lines SKBR3, MDA-MB-231, MCF-7 and 4-T1: 50-70%
[5]; after 48 and 72 h of treatment
  IC50: 0.018 to 0.05 µM
[6]
  tumor volume reduction: 70%
